Data taken from PubChem BioAssay AID1845212 (Molecular Pharmacology Branch, DTP, NCI, 2023).

Test system: NCI-H719 tumor spheroids, viability
Experiment: Anticancer human tumor NCI-H719 cell line growth inhibition;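 also: spheroids exposed to compounds for seven days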;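 as to viability, T/C: percent viability relative to DMSO vehicle control as 100%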
Details: spheroids with HUVEC and MSC; for IC50: curve of first compound; for viability, T/C: stronger effect = lower value
Description: Multicellular complex tumor spheroid response to DNA repair inhibitors in combination with DNA-damaging drugs
This study explores the anticancer activities of DNA-damaging drugs and inhibitors of DNA damage repair, both as single agents and in combinations. Complex tumor spheroids comprised of malignant cells, endothelial cells and mesenchymal stem cells served as an in vitro model for human solid tumors. This model system incorporates physiologically relevant features and patient-derived or established malignant cell lines with clinically relevant genetic alterations from many tumor types. Twenty-six patient-derived or established malignant cell lines were evaluated representing sarcoma, melanoma, small cell lung cancer (SCLC), non-small cell lung cancer (NSCLC), as well as bladder, ovarian and pancreatic cancers. The concentration ranges selected for each drug and investigational agent were based upon clinically achievable concentrations if the clinical Cmax of the agent was known.
Compounds. The drugs and compounds olaparib (NSC753686), talazoparib (NSC767125), berzosertib (NSC777718), elimusertib (NSC800525), nedisertib (NSC802822), VX-984 (NSC792969), AZD-1390 (NSC803789), temozolomide (NSC362856), topotecan (NSC609699), trabectedin (NSC813783), staurosporine (NSC755774), and gemcitabine (NSC613327) were obtained from the National Cancer Institute (NCI) Developmental Therapeutics Program Chemical Repository. The FDA-approved anticancer drug set is available from the Developmental Therapeutics Program at https://dtp.cancer.gov/organization/dscb/obtaining/available_plates.htm. […] The stock solutions were prepared in dimethyl sulfoxide (DMSO, Sigma-Aldrich, St. Louis, MO, cat. D2650) at 400-fold the tested concentration and stored at -70 degrees C. Prior to their use, the stock solutions were diluted in fresh medium and the final DMSO concentration in the assay was 0.25% (v/v). All drugs and investigational agents were tested over a range starting from a high concentration at or near the clinical Cmax and decreasing in half-log increments. If the clinical Cmax for an agent had not been determined, the highest concentration tested was 10 microM.
Cell Lines. The patient-derived cancer cell (PDC) lines: 156681-154-R-J1-PDC, 283228-195-R-J1-PDC, 287954-098-R-J1-PDC, 292921-168-R-J2-PDC, 349418-098-R-PDC, 425362-245-T-J1-PDC, 556581-035-R-J1-PDC, and BL0293-F563-PDC were received from the NCI Patient-Derived Models Repository (PDMR, https://pdmr.cancer.gov). The established cell lines HS-SY-2 (RRID:CVCL_8719), MPNST, and SYO-1 (RRID:CVCL_7146) were obtained from the Sloan Kettering Institute. The alveolar soft parts sarcoma cell line ASPS-1 (RRID:CVCL_S738) was established at the NCI and grown from internal seed stocks. The following established cell lines were purchased from the American Type Culture Collection (ATCC, Manassas, VA): G-401 (ATCC, cat. CRL-1441, RRID:CVCL_0270), SW982 (ATCC, cat. HTB-93, RRID:CVCL_1734), VA-ES-BJ (ATCC, cat. CRL-2138, RRID:CVCL_1785), NCI-H719 (ATCC, cat. CRL-5837, RRID:CVCL_1582), NCI-H196 (ATCC, cat. CRL-5823, RRID:CVCL_1509), NCI-H841 (ATCC, cat. CRL-5845, RRID:CVCL_1595), NCI-H1618 (ATCC, cat. CRL-5879, RRID:CVCL_1480), NCI-H1876 (ATCC, cat. CRL-5902, RRID:CVCL_1503), DMS 114 (ATCC, cat. CRL-2066; RRID:CVCL_1174), NCI-H211 (ATCC, cat. CRL-5824; RRID:CVCL_1529), and SW 1271 (ATCC, cat. CRL-2177, RRID:CVCL_1716). The small cell lung cancer cell line COR-L88 was purchased from Sigma-Aldrich (cat. 92031917-1VL, RRID:CVCL_1141). The non-small cell lung cancer cell lines NCI-H226 (RRID:CVCL_1544) and NCI-H322M (RRID:CVCL_1557) were established at the NCI and grown from internal seed stocks. Pooled donor human umbilical vein endothelial cells (HUVEC, Lonza, cat. CC-2519) and human mesenchymal stem cells (hMSC, Lonza, cat. PT-2501) were purchased from Lonza (Walkersville, MD).
Cell Culture. All cells were maintained in an incubator at 37 degrees C and 5% CO2 with 95% humidity. […]

## Cc1sc2c(c1C)C(c1ccc(Cl)cc1)=NC(CC(=O)Nc1ccc(O)cc1)c1nnc(C)n1-2 (stereo not given) + CC[C@@]1(O)C(=O)OCc2c1cc1n(c2=O)Cc2cc3c(CN(C)C)c(O)ccc3nc2-1
Second compound 0.003 µM
  IC50: < 9.49 nM
Second compound 0.00949 µM
  IC50: < 9.49 nM
Second compound 0.03 µM
  IC50: < 9.49 nM
Second compound 0.0949 µM
  IC50: < 9.49 nM
Second compound 0.3 µM
  IC50: < 9.49 nM
Second compound 0.003 µM, first compound 0.00949 µM
  viability, T/C: 42.6%
Second compound 0.003 µM, first compound 0.03 µM
  viability, T/C: 31.5%
Second compound 0.003 µM, first compound 0.0949 µM
  viability, T/C: 9.86%
Second compound 0.003 µM, first compound 0.3 µM
  viability, T/C: 4.37%
Second compound 0.003 µM, first compound 0.949 µM
  viability, T/C: 2.57%
Second compound 0.003 µM, first compound 3 µM
  viability, T/C: 1.57%
Second compound 0.00949 µM, first compound 0.00949 µM
  viability, T/C: 5.64%
Second compound 0.00949 µM, first compound 0.03 µM
  viability, T/C: 5.14%
Second compound 0.00949 µM, first compound 0.0949 µM
  viability, T/C: 5%
Second compound 0.00949 µM, first compound 0.3 µM
  viability, T/C: 4.27%
Second compound 0.00949 µM, first compound 0.949 µM
  viability, T/C: 2.51%
Second compound 0.00949 µM, first compound 3 µM
  viability, T/C: 2.02%
Second compound 0.03 µM, first compound 0.00949 µM
  viability, T/C: 4.76%
Second compound 0.03 µM, first compound 0.03 µM
  viability, T/C: 4.99%
Second compound 0.03 µM, first compound 0.0949 µM
  viability, T/C: 4.72%
Second compound 0.03 µM, first compound 0.3 µM
  viability, T/C: 3.7%
Second compound 0.03 µM, first compound 0.949 µM
  viability, T/C: 2.76%
Second compound 0.03 µM, first compound 3 µM
  viability, T/C: 1.87%
Second compound 0.0949 µM, first compound 0.00949 µM
  viability, T/C: 4.97%
Second compound 0.0949 µM, first compound 0.03 µM
  viability, T/C: 4.42%
Second compound 0.0949 µM, first compound 0.0949 µM
  viability, T/C: 4.02%
Second compound 0.0949 µM, first compound 0.3 µM
  viability, T/C: 3.47%
Second compound 0.0949 µM, first compound 0.949 µM
  viability, T/C: 2.28%
Second compound 0.0949 µM, first compound 3 µM
  viability, T/C: 1.46%
Second compound 0.3 µM, first compound 0.00949 µM
  viability, T/C: 5.22%
Second compound 0.3 µM, first compound 0.03 µM
  viability, T/C: 4.7%
Second compound 0.3 µM, first compound 0.0949 µM
  viability, T/C: 3.68%
Second compound 0.3 µM, first compound 0.3 µM
  viability, T/C: 2.55%
Second compound 0.3 µM, first compound 0.949 µM
  viability, T/C: 1.67%
Second compound 0.3 µM, first compound 3 µM
  viability, T/C: 0.66%
